SMILES strings stand for the structures. Read-outs that look alike come from different tables or passages of the source.

Test [1] concerns r(G4C2)^exp. As to conditions: background statement; cited from earlier work.
For test [2], the system named is cultured cells and induced neurons. Particulars: cited from earlier work.
Test [3] concerns RAN translation of (G4C2)66-No ATG-GFP in HEK293T cells. In words: Cell-based assay of RAN translation inhibition (GFP/mCherry reporter). Particulars: Homo sapiens, HEK-293T, read-out: RANT IC50.
In test [4] the target is Biotin-labeled RNA (target RNA). In words: BLI affinity measurement (ForteBio Octet RED384). In kind it is binding. As to conditions: Table G. (In BLI a coated tip is dipped into the sample, and binding shifts an interference pattern.)

For the molecule `Cc1c2cc[n+](CCN3CCCCC3)cc2c(C)c2c1[nH]c1ccc(O)cc12` [Compound 1a], in test [1], the “binding to r(G4C2)exp” value is listed as “binds”. In addition, the “inhibition of RAN translation and foci formation” value in test [2] was “inhibits RAN translation and foci formation”.
Usually IC50 stands for the point on the concentration scale where inhibition reaches its midpoint. As usually defined, the Kd is a measure of binding affinity in units of concentration. Lower therefore signals a tighter complex. For the molecule `Cc1c2ccncc2cc2c3cc(C(=O)NCC(N)=O)ccc3n(C)c12` [Compound 296, N-(2-amino-2-oxoethyl)-5,6-dimethyl-6H-pyrido[4,3-b]carbazole-9-carboxamide], the IC50 in test [3] (Table G, HEK293T) was found to be 3 µM. The affinity in test [4], expressed as Kd, was 5.3 µM.
Take `Cc1c2ccncc2cc2c3cc(C(=O)N[C@@H](C)C(N)=O)ccc3n(C)c12` [Compound 297, (S)—N-(1-amino-1-oxopropan-2-yl)-5,6-dimethyl-6H-pyrido[4,3-b]carbazole-9-carboxamide]: the IC50 in test [3] (Table G, HEK293T) was determined as 2.9 µM. The molecule further returned a Kd in test [4] of 2.7 µM.
For `Cc1c2ccncc2cc2c3cc(C(=O)N[C@H](C)C(N)=O)ccc3n(C)c12` [Compound 298, (R)—N-(1-amino-1-oxopropan-2-yl)-5,6-dimethyl-6H-pyrido[4,3-b]carbazole-9-carboxamide], in that order: 1.4 µM and 6.6 µM.
Turning to `COC(C)(C)CNC(=O)c1ccc2c(c1)c1cc3cnccc3c(C)c1n2C` [Compound 299, N-(2-methoxy-2-methylpropyl)-5,6-dimethyl-6H-pyrido[4,3-b]carbazole-9-carboxamide], the IC50 in test [3] (Table G, HEK293T) came to 3.8 µM. This molecule also displayed a Kd in test [4] of 0.24 µM.
The like results for `Cc1c2ccncc2cc2c3cc(C(=O)NC[C@H](C)N(C)C)ccc3n(C)c12` [Compound 300, (S)—N-(2-(dimethylamino)propyl)-5,6-dimethyl-6H-pyrido[4,3-b]carbazole-9-carboxamide] were, in that order, 8.6 µM and 0.35 µM.
Take `COCC(C)(C)NC(=O)c1ccc2c(c1)c1cc3cnccc3c(C)c1n2C` [Compound 302, N-(1-methoxy-2-methylpropan-2-yl)-5,6-dimethyl-6H-pyrido[4,3-b]carbazole-9-carb-oxamide]: the IC50 in test [3] (Table G, HEK293T) worked out at 9.1 µM. Also, the affinity in test [4], expressed as Kd, was 8.2 µM.
As for `Cc1c2ccncc2cc2c3cc(Oc4ccnc(N)c4)ccc3n(C)c12` [Compound 303, 4-((5,6-dimethyl-6H-pyrido[4,3-b]carbazol-9-yl)oxy)pyridin-2-amine], the IC50 in test [3] (Table G, HEK293T) was above 100 µM. The same molecule displayed a Kd in test [4] of 0.18 µM.
In the case of `Cc1c2ccncc2cc2c3cc(Oc4cccc(N)n4)ccc3n(C)c12` [Compound 304, 6-((5,6-dimethyl-6H-pyrido[4,3-b]carbazol-9-yl)oxy)pyridin-2-amine], in test [3] (Table G, HEK293T), the IC50 was determined as 5.9 µM. In addition, the Kd in test [4] turned out to be 1.4 µM.
For `Cc1c2ccncc2cc2c3cc(Oc4ccncc4)ccc3n(C)c12` [Compound 306, 5,6-dimethyl-9-(pyridin-4-yloxy)-6H-pyrido[4,3-b]carbazole], in that order: 14 µM and 1.2 µM.
For `Cc1c2ccnc(C(=O)NCCN)c2cc2c3cc(F)ccc3n(C)c12` [Compound 308, N-(2-aminoethyl)-9-fluoro-5,6-dimethyl-6H-pyrido[4,3-b]carbazole-1-carboxamide], in that order: above 100 µM and 0.56 µM.
`Cc1c2ccnc(C(=O)NCCN)c2cc2c3cc(F)c(F)cc3n(C)c12` [Compound 309, N-(2-aminoethyl)-8,9-difluoro-5,6-dimethyl-6H-pyrido[4,3-b]carbazole-1-carboxamide]: the IC50 in test [3] (Table G, HEK293T) was 41 µM. Moreover, the Kd in test [4] was 1.4 µM.
For `Cc1c2ccnc(C(=O)N[C@H](C)CN(C)C)c2cc2c3cc(F)ccc3n(C)c12` [Compound 310, (R)—N-(1-(dimethylamino)propan-2-yl)-9-fluoro-5,6-dimethyl-6H-pyrido[4,3-b]carbazole-1-carboxamide], in that order: 38 µM and 0.97 µM.
For `Cc1c2ccncc2cc2c3cc(Oc4cccnc4)ccc3n(C)c12` [Compound 311, 5,6-dimethyl-9-(pyridin-3-yloxy)-6H-pyrido[4,3-b]carbazole], the IC50 in test [3] worked out at 20 µM. Moreover, in test [4], binding was put at a Kd of 2.3 µM.
For `Cc1c2ccncc2cc2c3ccccc3n(CCN(C)C)c12` [Compound 312, N,N-dimethyl-2-(5-methyl-6H-pyrido[4,3-b]carbazol-6-yl)ethanamine], in that order: 7.4 µM and 1.3 µM.
`Cc1c2ccnc(C(=O)NCCN(C)C)c2cc2c3cc(F)c(F)cc3n(C)c12` [Compound 313, N-(2-(dimethylamino)ethyl)-8,9-difluoro-5,6-dimethyl-6H-pyrido[4,3-b]carbazole-1-carboxamide]: the IC50 in test [3] (Table G, HEK293T) is above 100 µM. The molecule also showed a Kd in test [4] of 4.7 µM.
For `Cc1c2ccncc2cc2c3cc(Oc4ccc(N)nc4)ccc3n(C)c12` [Compound 314, 5-((5,6-dimethyl-6H-pyrido[4,3-b]carbazol-9-yl)oxy)pyridine-2-amine], in that order: above 60 µM and 3 µM.
For `Cc1c2ccnc(C(=O)NCCN(C)C)c2cc2c3cc(F)ccc3n(C)c12` [Compound 315, N-(2-(dimethylamino)ethyl)-9-fluoro-5,6-dimethyl-6H-pyrido[4,3-b]carbazole-1-carboxamide], in that order: above 100 µM and 11 µM.
For the molecule `COc1ccc2c(c1)c1cc3cnccc3c(C)c1n2CCN1CCCCC1` [Compound 316, 9-methoxy-5-methyl-6-(2-(piperidin-1-yl)ethyl)-6H-pyrido[4,3-b]carbazole], in test [3], the IC50 was 10 µM. In test [4], this molecule registered a Kd of 3.4 µM.
Turning to `Cc1c2ccncc2cc2c3ccccc3n(CC3=NCCN3)c12` [Compound 317, 6-((4,5-dihydro-1H-imidazol-2-yl)methyl)-5-methyl-6H-pyrido[4,3-b]carbazole], the IC50 in test [3] (Table G, HEK293T) worked out at 5 µM. For the same molecule, in test [4], the Kd stood at 5 µM.
For `Cc1c2ccncc2cc2c3ccccc3n(CCN3CCCCC3)c12` [Compound 318, 5-methyl-6-(2-(piperidin-1-yl)ethyl)-6H-pyrido[4,3-b]carbazole], the IC50 in test [3] was determined as 16 µM. In test [4], this molecule yielded a Kd of 6 µM.
The like results for `Cc1c2ccncc2cc2c3ccccc3n(CCN3CCOCC3)c12` [Compound 319, 4-(2-(5-methyl-6H-pyrido[4,3-b]carbazol-6-yl)ethyl)morpholine] were, in that order, 12 µM and 7.8 µM.
The like results for `COc1ccc2c(c1)c1cc3cnccc3c(C)c1n2CCN1CCOCC1` [Compound 320, 4-(2-(9-methoxy-5-methyl-6H-pyrido[4,3-b]carbazol-6-yl)ethyl)morpholine] were, in that order, 1.9 µM and 100 µM.
For `CNCCOc1ccc2c(c1)c1cc3cnccc3c(C)c1n2C` [Compound 321, 2-((5,6-dimethyl-6H-pyrido[4,3-b]carbazol-9-yl)oxy)-N-methylethanamine], the IC50 in test [3] (Table G, HEK293T) was 3.5 µM. This molecule also came in with a Kd in test [4] of 0.71 µM.

The record behind these values is patent US20240067639A1, “SMALL MOLECULES THAT TARGET THE RNA THAT CAUSES ALS” (EXPANSION THERAPEUTICS, INC., priority 2020, published 2024).
